Like-named read-outs stand apart in the source and are kept apart here.
Biological target: T1, H. sapiens SLC2A9 variant 2 (GLUT9B) (Homo sapiens, UniProt Q9NRM0)
T1 sequence (Q9NRM0 1-511 isoform Q9NRM0-2): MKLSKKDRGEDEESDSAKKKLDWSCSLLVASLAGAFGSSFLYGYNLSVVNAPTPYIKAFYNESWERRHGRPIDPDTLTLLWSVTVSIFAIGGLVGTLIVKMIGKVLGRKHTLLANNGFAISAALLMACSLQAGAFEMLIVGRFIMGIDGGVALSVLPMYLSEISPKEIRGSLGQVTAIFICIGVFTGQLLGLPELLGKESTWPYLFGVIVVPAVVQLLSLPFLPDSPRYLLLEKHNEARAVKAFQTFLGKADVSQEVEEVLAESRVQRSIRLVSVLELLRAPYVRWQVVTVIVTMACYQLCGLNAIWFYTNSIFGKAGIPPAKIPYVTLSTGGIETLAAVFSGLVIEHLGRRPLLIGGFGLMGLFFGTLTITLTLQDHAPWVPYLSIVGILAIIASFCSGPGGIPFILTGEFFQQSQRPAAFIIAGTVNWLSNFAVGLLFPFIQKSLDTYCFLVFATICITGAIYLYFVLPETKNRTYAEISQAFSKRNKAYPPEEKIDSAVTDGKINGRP
Experiment: GLUT9 functional assay: uric acid uptake in HEK293T cells, allantoin formation by MS/MS as proxy of GLUT9B inhibition
Type: cell-based
Conditions: HEK293T cells stably expressing GLUT9B and transiently A. oryzae uricase, uric acid 0.3 mM, 37° C.
How it was run: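 HEK293T cells stably expressing human GLUT9B and transiently expressing A. oryzae uricase, exposed across a 12-point curve to 0.3 mM uric acid (Km) in sodium gluconate buffer pH 7.4 for 15 or 60 min at 37° C. Allantoin in lysates quantified by RapidFire MS/MS (positive ion) against a matrix-matched standard curve as proxy for uptake.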

[1] = 60 minute assay, read-out: 60 min IC50
[2] = 15 minute assay, read-out: 15 min IC50

Row | Compound | IC50 [1] | IC50 [2]
1 | COCCCc1cnc(-c2cnc3c(c2)ncn3C)c(N2CCC(C(=O)O)CC2)n1 [Compound 219, 1-(6-(3-methoxypropyl)-3-(3-methyl-3H-imidazo[4,5-b]pyridin-6-yl)pyrazin-2-yl)piperidine-4-carboxylic acid] | > 2000 nM | –
2 | COCCCCc1cnc(-c2ccc3c(c2)CCO3)c(N2CCC(C(=O)O)CC2)n1 [Compound 139, 1-(3-(2,3-dihydrobenzofuran-5-yl)-6-(4-methoxybutyl)pyrazin-2-yl)piperidine-4-carboxylic acid] | – | < 500 nM
3 | COCCOCCCc1cnc(-c2cc(F)c3occc3c2)c(N2CCC(C(=O)O)CC2)n1 [Compound 118, 1-(3-(7-fluorobenzofuran-5-yl)-6-(3-(2-methoxyethoxy)propyl)pyrazin-2-yl)piperidine-4-carboxylic acid] | – | 500 to 2000 nM
4 | COCCCc1cnc(-c2ccc3occc3c2)c(N2CCC3(C(=O)O)CC2C3)n1 [Compound 181, 2-(3-(benzofuran-5-yl)-6-(3-methoxypropyl)pyrazin-2-yl)-2-azabicyclo[3.1.1]heptane-5-carboxylic acid] | < 500 nM | –
5 | O=C(O)C1CCN(c2nc(CCC(F)(F)F)cnc2-c2cnc3c(c2)CCO3)CC1 [Compound 87, 1-(3-(2,3-dihydrofuro[2,3-b]pyridin-5-yl)-6-(3,3,3-trifluoropropyl)pyrazin-2-yl)piperidine-4-carboxylic acid] | – | > 2000 nM
6 | CCCCc1cnc(-c2ccc(OC)cc2)c(N2CC3(CC(C(=O)O)C3)C2)n1 [Compound 36, 2-(6-butyl-3-(4-methoxyphenyl)pyrazin-2-yl)-2-azaspiro[3.3]heptane-6-carboxylic acid] | – | 500 to 2000 nM
7 | O=C(O)C1CCN(c2nc(CCC(F)(F)F)cnc2-c2ccc(OCCO)cc2)CC1 [Compound 99, 1-(3-(4-(2-hydroxyethoxy)phenyl)-6-(3,3,3-trifluoropropyl)pyrazin-2-yl)piperidine-4-carboxylic acid] | – | > 2000 nM
8 | CS(=O)(=O)CCc1cnc(-c2cc(F)c3occc3c2)c(N2CCC(C(=O)O)CC2)n1 [Compound 84, 1-(3-(7-fluorobenzofuran-5-yl)-6-(2-(methylsulfonyl)ethyl)pyrazin-2-yl)piperidine-4-carboxylic acid] | – | > 2000 nM
9 | COCCCc1cnc(-c2ccc3cncn3c2)c(N2CCC(C(=O)O)CC2)n1 [Compound 207, 1-(3-(imidazo[1,5-a]pyridin-6-yl)-6-(3-methoxypropyl)pyrazin-2-yl)piperidine-4-carboxylic acid] | > 2000 nM | –
10 | COCCOc1ccc(-c2ncc(CCC3CC3)nc2N2CCC(C(=O)O)CC2)cc1 [Compound 74, 1-(6-(2-cyclopropylethyl)-3-(4-(2-methoxyethoxy)phenyl)pyrazin-2-yl)piperidine-4-carboxylic acid] | – | 500 to 2000 nM
11 | COCCOCCOc1ccc(-c2ncc(CCCC(F)(F)F)nc2N2CCC(C(=O)O)CC2)cc1 [Compound 117, 1-(3-(4-(2-(2-methoxyethoxy)ethoxy)phenyl)-6-(4,4,4-trifluorobutyl)pyrazin-2-yl)piperidine-4-carboxylic acid] | – | 500 to 2000 nM
12 | CCCCc1cnc(-c2cnc(OC)s2)c(N2CCC(C(=O)O)CC2)n1 [Compound 44, 1-(6-butyl-3-(2-methoxythiazol-5-yl)pyrazin-2-yl)piperidine-4-carboxylic acid] | – | > 2000 nM
13 | COc1ccc(-c2ncc(CCC(F)(F)F)nc2N2CCC(OCC(=O)O)CC2)cc1 [Compound 100, 2-((1-(3-(4-methoxyphenyl)-6-(3,3,3-trifluoropropyl)pyrazin-2-yl)piperidin-4-yl)oxy)acetic acid] | – | < 500 nM
14 | COCCCc1cnc(-c2ccc(S(C)(=O)=O)cc2)c(N2CCC(C(=O)O)CC2)n1 [Compound 230, 1-(6-(3-methoxypropyl)-3-(4-(methylsulfonyl)phenyl)pyrazin-2-yl)piperidine-4-carboxylic acid] | < 500 nM | –
15 | O=C(O)C1CCN(c2nc(CCC(F)(F)F)cnc2-c2ccc3c(c2)CCO3)CC1 [Compound 119, 1-(3-(2,3-dihydrobenzofuran-5-yl)-6-(3,3,3-trifluoropropyl)pyrazin-2-yl)piperidine-4-carboxylic acid] | – | < 500 nM
16 | O=C(O)C1CCN(c2nc(CCCC(F)(F)F)cnc2-c2ccc3c(c2)OCCO3)CC1 [Compound 110, 1-(3-(2,3-dihydrobenzo[b][1,4]dioxin-6-yl)-6-(4,4,4-trifluorobutyl)pyrazin-2-yl)piperidine-4-carboxylic acid] | – | 500 to 2000 nM
17 | CCCCc1cnc(-c2ccc(OC)cc2)c(-c2ncc(C(=O)O)s2)c1 [Compound 25, 2-(5-butyl-2-(4-methoxyphenyl)pyridin-3-yl)thiazole-5-carboxylic acid] | – | > 2000 nM

Row | Compound | IC50 [1] | IC50 [2]
18 | CCCCc1cnc(-c2cc(F)c(OCCOC)c(F)c2)c(N2CCC(C(=O)O)CC2)n1 [Compound 38, 1-(6-butyl-3-(3,5-difluoro-4-(2-methoxyethoxy)phenyl)pyrazin-2-yl)piperidine-4-carboxylic acid] | – | 500 to 2000 nM
19 | COCCCc1cnc(-c2ccc3c[nH]nc3c2)c(N2CCC(C(=O)O)CC2)n1 [Compound 193, 1-(3-(2H-indazol-6-yl)-6-(3-methoxypropyl)pyrazin-2-yl)piperidine-4-carboxylic acid] | > 2000 nM | –
20 | COCCCc1cnc(-c2ccc3occc3c2)c(N2CCC[C@H](C(=O)O)C2)n1 (single isomer, unassigned) [Compound 235] | > 2000 nM | –
21 | COCCOc1ccc(-c2ncc(COCC(F)(F)F)nc2N2CCC(C(=O)O)CC2)cc1 [Compound 33, 1-(3-(4-(2-methoxyethoxy)phenyl)-6-((2,2,2-trifluoroethoxy)methyl)pyrazin-2-yl)piperidine-4-carboxylic acid] | – | 500 to 2000 nM
22 | COCCCc1cnc(-c2cnn3c2CCCC3)c(N2CCC(C(=O)O)CC2)n1 [Compound 206, 1-(6-(3-methoxypropyl)-3-(4,5,6,7-tetrahydropyrazolo[1,5-a]pyridin-3-yl)pyrazin-2-yl)piperidine-4-carboxylic acid] | > 2000 nM | –
23 | O=C(O)C1CCN(c2nc(CCCC(F)(F)F)cnc2-c2ccc3occc3c2)CC1 [Compound 123, 1-(3-(benzofuran-5-yl)-6-(4,4,4-trifluorobutyl)pyrazin-2-yl)piperidine-4-carboxylic acid] | – | < 500 nM
24 | CCCCc1cnc(-c2ccc(OC)cc2)c(N2CCC(CC(=O)O)CC2)n1 [Compound 15, 2-(1-(6-Butyl-3-(4-Methoxyphenyl)Pyrazin-2-yl)Piperidin-4-yl)Acetic acid] | – | < 500 nM
25 | CCCCc1cnc(-c2ccc(OC)cc2)c(N2CCC(C(=O)O)CC2)n1 [Compound 3, 1-(6-Butyl-3-(4-Methoxyphenyl)Pyrazin-2-yl)Piperidine-4-Carboxylic Acid] | < 500 nM | < 500 nM
26 | O=C(O)C1CCN(c2nc(CCCC(F)(F)F)cnc2-c2ccc(OC3CC3)cc2)CC1 [Compound 113, 1-(3-(4-cyclopropoxyphenyl)-6-(4,4,4-trifluorobutyl)pyrazin-2-yl)piperidine-4-carboxylic acid] | – | 500 to 2000 nM
27 | COCCOc1ccc(-c2ncc(CCCC(F)(F)F)nc2N2CCC(C(=O)O)CC2)cc1 [Compound 34, 1-(3-(4-(2-methoxyethoxy)phenyl)-6-(4,4,4-trifluorobutyl)pyrazin-2-yl)piperidine-4-carboxylic acid] | – | 500 to 2000 nM
28 | COCC(COC)Cc1cnc(-c2cc(F)c3occc3c2)c(N2CCC(C(=O)O)CC2)n1 [Compound 53, 1-(3-(7-Fluorobenzofuran-5-yl)-6-(3-Methoxy-2-(methoxymethyl)propyl)pyrazin-2-yl)piperidine-4-carboxylic acid] | – | < 500 nM
29 | COCC(COC)Cc1cnc(-c2ccc(OCC3CC3)cc2)c(N2CCC(C(=O)O)CC2)n1 [Compound 156, 1-(3-(4-(cyclopropylmethoxy)phenyl)-6-(3-methoxy-2-(methoxymethyl)propyl)pyrazin-2-yl)piperidine-4-carboxylic acid] | – | > 2000 nM
30 | O=C(O)C1CCN(c2nc(COCC(F)(F)F)cnc2-c2ccc3oc(F)cc3c2)CC1 [Compound 57, 1-(3-(2-fluorobenzofuran-5-yl)-6-((2,2,2-trifluoroethoxy)methyl)pyrazin-2-yl)piperidine-4-carboxylic acid] | – | > 2000 nM
31 | COc1ccc(-c2ncc(CCCC(F)(F)F)nc2N2CCC(C(=O)O)CC2)cc1 [Compound 31, 1-(3-(4-methoxyphenyl)-6-(4,4,4-trifluorobutyl)pyrazin-2-yl)piperidine-4-carboxylic acid] | – | < 500 nM
32 | O=C(O)C1CCN(c2nc(CCCC(F)(F)F)cnc2-c2ccc3c(c2)NCCO3)CC1 [Compound 114, 1-(3-(3,4-dihydro-2H-benzo[b][1,4]oxazin-6-y)-6-(4,4,4-trifluorobutyl)pyrazin-2-yl)piperidine-4-carboxylic acid] | – | 500 to 2000 nM
33 | COCCCc1cnc(-c2ccc3occc3c2)c(N2CCC(C(=O)O)CC2)n1 [Compound 172, 1-(3-(benzofuran-5-yl)-6-(3-Methoxypropyl)Pyrazin-2-yl)Piperidine-4-carboxylic acid] | < 500 nM | < 500 nM

Reference: patent US20250179032A1, “HETEROCYCLIC INHIBITORS OF GLUT9 FOR TREATMENT OF DISEASE” (HORIZON THERAPEUTICS IRELAND DAC, priority 2022, published 2025)
